In US20060018851A1, “Methods and compositions for preventing and treating hyperpigmentation of skin” (ProCyte Corporation, priority 2004, published 2006):

Tested on: B16 melanocytes
Test: Melanin (pigment) produced by B16 melanocytes in culture; culture media analyzed for pigment content after 5 days, pictures of culture plates
Assay type: cell-based
Conditions: for Percent Inhibition of Pigmentation in Melanocytes: 5 days
Procedure: The effect of peptide manganese complexes on pigmentation was determined by determining the amount of melanin produced by B16 melanocytes in culture. Various amounts of a representative peptide manganese complex (glycyl-L-histidyl-L-lysine:manganese) were added to the culture medium. After 5 days, the culture media was collected and analyzed for pigment content. In addition, pictures were taken of the culture plates.

| Compound | inhibition of pigment formation compared with GHK-Mn (200 ug/mi kojic acid vs 25 ug/ml GHK-Mn) | Percent Inhibition of Pigmentation in Melanocytes (0.1 ug/mL, Plate I) | Percent Inhibition of Pigmentation in Melanocytes (0.1 ug/mL, Plate II) | Percent Inhibition of Pigmentation in Melanocytes (1.0 ug/ml, Plate I) | Percent Inhibition of Pigmentation in Melanocytes (1.0 ug/ml, Plate II) | Percent Inhibition of Pigmentation in Melanocytes (10 ug/ml, Plate I) | Percent Inhibition of Pigmentation in Melanocytes (10 ug/ml, Plate II) | inhibition of pigment formation compared with kojic acid (25 ug/ml GHK-Mn vs 200 ug/mi kojic acid) | formation of pigment inhibited relative to the control (highest concentration tested) | formation of melanin pigments in cultured melanocytes (Table 4, FIG. 1) (various concentrations) | visual examination of culture flasks: secreted melanin (FIG. 2) (vs PBS control flask) | melanin in the cells, high magnification photograph (FIG. 3B) (vs control melanocyte culture (FIG. 3A)) |
| --- | --- | --- | --- | --- | --- | --- | --- | --- | --- | --- | --- | --- |
| O=c1cc(CO)occ1O [kojic acid, 5-hydoxy-4-pyran-4-one-2-methyl, reference compound] | approximately equivalent | – | – | – | – | – | – | – | – | – | – | – |
| glycyl-L-histidyl-L-lysine:manganese(II) [GHK-Mn] | – | 42% | 28% | 68% | 35% | 88% | 81% | approximately equivalent to that of 200 ug/mi of kojic acid | more than 80% | inhibited the formation of melanin pigments in cultured melanocytes in a dose responsive manner | contains relatively little melanin | containing much less melanin in the cells |
